One data set relates to IL-8. As to the kind of experiment: IL-8 release, nickel-induced allergy in human dermal microvascular endothelial cells (ELISA). It is filed as cell-based. The settings on record: Homo sapiens, Endothelial cell; co-treatment with NiSO4, HDMECs; read-out: IC50 of IL-8 inhibition. The procedure:
Dermal Microvascular endothelial cells of human origin were cultured in vitro using standard conditions (37° C., 95% v/v air, 5% v/v CO2). Human cells were selected as relevant to cell types within skin tissues for this development program. Cell culture methods are commonly used in non-clinical studies conducted on pharmaceutical products. […] Cells were cultured until the third and fourth passage and then acclimated for 24 hours before Nickel induction and dosing procedures. Cell treatment groups were identified using appropriate 96-well plates. The test and control articles were administered to medium containing 1 mM NiSO4 in triplicates. The negative control group received vehicle-only (0.1% v/v final) dose. A fixed 0.1 μL/well from 1000× stock dose volume was administered to 100 μL of media to each cell culture well on Day 2 and incubated for 6 hours at 37 degrees. These cell cultures were also utilized to determine the concentrations of test agent that were non-toxic after 24 hours of incubation.
Assay for Interleukin-8: Test material was applied in vitro for the ability to inhibit pro-inflammatory (IL-8) cytokine secretion by cultured HDMECs co-treated with Nickel (NiSO4). Clobetasol propionate was tested as positive control material for anti-inflammatory activity. The pro-inflammatory cytokine (IL-8) was quantified by enzyme-linked immunosorbent assay (ELISA) after inflammatory induction and incubation with test and control materials. Interleukin-8 levels in cell culture medium are markers of inflammation signaling by endothelial cells present in skin microvascular tissue in response to irritation. Interleukin-8 (IL-8) levels were assessed using BD Biosciences OptEIA™ Human IL-8 ELISA Set kit (Cat. No. 555244) and Reagent Set B (Cat. No. 550534) according to the manufacture's specifications. Absorbance was measured at 450 nm using plate reader and interleukin-8 levels were calculated from a standard curve.

Data set [1] can be described thus: Antioxidant capacity (ABTS/metmyoglobin assay). It counts as biochemical. As to conditions: OD 750 nm, 15 minutes after hydrogen peroxide. The procedure: Antioxidant capacity: The purpose of this study was to evaluate the overall antioxidant capacity of KLS-13022 for the ability to inhibit the oxidation of ABTS. (2,2′-Azino-di-[3-ethylbenzthiazoline sulphonate]) to ABTS.^+ by metmyoglobin. Ascorbic acid (Vitamin C) was used as positive antioxidant control in the assay. The testing involved the suppression of optical density (OD) at 750 nm to a degree, which is proportional to an effective oxidation inhibition. Neat solutions were prepared for materials formulated in HPLC-grade water (ascorbic acid) or 200-proof ethanol (KLS-13022). Serial dilutions were prepared for each material and mixed with metmyoglobin enzyme in assay buffer solution. All samples were compared to vehicle-only treated samples used as negative oxidation inhibition. Optical density changes at 750 nm were evaluated 15 minutes after addition of hydrogen peroxide to each sample. Average absorbance was calculated and plotted for each sample concentration. Effective antioxidant inhibition activity based on the change of absorbance of blank (vehicle-only) sample (no material added). […] The Antioxidant assay kit was obtained from Cayman Chemical Co. (Ann Arbor, Mich.). The assay consisted in the evaluation of the overall antioxidant capacity of test materials for the ability to inhibit the oxidation of ABTS. to ABTS.^+ by metmyoglobin. […]

Data set [2] has as its system human 3D cornea-like EPIOCULAR
As to the kind of experiment: Eye irritation, EPIOCULAR reconstructed cornea-like model, OECD 492 (MTT). It counts as cell-based. The settings on record: KLS-13022 up to 3% w/v in 60:40 ethanol:water; OECD 492. On the procedure:
Ocular irritancy: The purpose of this study was to evaluate any potential ocular irritation activity of KLS-13022 formulations compared to vehicle-only treated tissues in vitro on human 3D cornea-like EPIOCULAR by topical application according to OECD 492 protocol. Test formulations of KLS-13022 up to 3% w/v in 60:40 ethanol:water vehicle were prepared fresh before use. EPIOCULAR tissues were acclimated before treatments for 24 hours and later treated topically for 30 minutes with KLS-13022 (0.01, 0.1, 0.3 1, 3% w/v). Methyl acetate was used as positive eye irritant control. Tissue viability levels were measured by MTT reduction assay method after material treatments. The levels of tissue viability after each material treatment was compared to vehicle control group to determine any potential ocular irritation activity.
Average levels of tissue viability were calculated for each treatment group. According to OECD 492 protocol, predicted positive eye irritation activities were determined when obtaining <60% tissue viability. […] Primary cornea-like inserts were used from human origin and purchased from MatTek (Ashland, Mass.). […] Tissues were cultured with standard conditions (37° C., 95% v/v air, 5% v/v CO2) and acclimated for 18+3 hours before dosing procedures.

As usually defined, the IC50 is the concentration that inhibits the measured activity by half. `CCC(=O)O[C@]1(C(=O)CCl)[C@@H](C)C[C@H]2[C@@H]3CCC4=CC(=O)C=C[C@]4(C)[C@@]3(F)[C@@H](O)C[C@@]21C` [Clobetasol propionate, reference compound]: the half-maximal inhibitory concentration (IC50) in the data set on IL-8 was ~500 nM.

By EC50 is commonly meant the midpoint of the concentration-response curve. A high value points to weaker potency. With `O=C1O[C@H]([C@@H](O)CO)C(O)=C1O` [ascorbic acid, reference compound], the midpoint of the response in data set [1], the EC50, lay at 39.7 µM.

Take `COC(C)=O` [methyl acetate, Methyl acetate, reference compound]: the ocular irritancy potential entry in data set [2] was “strong eye irritant”.

These data come from patent US20220409578A1, “FUNCTIONALIZED 1,3-BENZENE DIOLS AND THEIR METHOD OF USE FOR THE TREATMENT OF RADIATION DERMATITIS AND OTHER SKIN DISORDERS” (KANNALIFE SCIENCES, INC., priority 2019, published 2022).
